From PubChem BioAssay (NCI)
Several values for one entry are separate records, joined by “and”; a condition that tells them apart may be missing. Identical values can stand only once.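 Five concentrations, 48 hours, 96-well plates. GI50 is the concentration that inhibits growth by half. TGI marks complete inhibition of growth.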

Key:
Experiment in all cases: NCI tumour cell line growth inhibition, 48 h
KM12 colon = tested on: KM12 colon
ACHN renal = tested on: ACHN renal
M14 melanoma = tested on: M14 melanoma
A549 NSCLC = tested on: A549 NSCLC
UACC-62 melanoma = tested on: UACC-62 melanoma
NCI-H23 lung = tested on: NCI-H23 lung
MDA-MB-435 = tested on: MDA-MB-435
SF-295 CNS = tested on: SF-295 CNS
UO-31 renal = tested on: UO-31 renal
BT-549 breast = tested on: BT-549 breast

SMILES	TGI (KM12 colon) [µM]	TGI (ACHN renal) [µM]	TGI (M14 melanoma)	TGI (A549 NSCLC) [µM]	TGI (UACC-62 melanoma) [µM]	TGI (NCI-H23 lung) [µM]	TGI (MDA-MB-435) [µM]	TGI (SF-295 CNS) [µM]	TGI (UO-31 renal)	TGI (BT-549 breast) [µM]	GI50 (KM12 colon)	GI50 (ACHN renal) [µM]	GI50 (A549 NSCLC)	GI50 (UACC-62 melanoma)	GI50 (NCI-H23 lung) [µM]	GI50 (MDA-MB-435)	GI50 (SF-295 CNS)	GI50 (BT-549 breast) [µM]	GI50 (M14 melanoma)	GI50 (UO-31 renal)
Cc1c2ccccc2c(C)n2c1nc1ccccc12	23.3	45.5	24.1 µM	23.2	23.5	30.7	19.1	25.3	24.1 µM	35.3	–	–	–	–	–	–	–	–	–	–
Cn1ccnc1CCc1ccc(Cl)c(Cl)c1	> 100	> 100	> 100 µM	> 100	> 100	> 100	–	> 100	> 100 µM	–	–	–	–	–	–	–	–	–	–	–
O=C(O)CNC(=O)c1ccc2cc(C(=O)N3CC(CCl)c4ccc([N+](=O)[O-])cc43)[nH]c2c1 (stereo not given)	> 100	> 100	> 100 µM	> 100	> 100	> 100	> 100	> 100	> 100 µM	> 100	–	–	–	–	–	–	–	–	–	–
O=C(C(Cl)=C(N1CCCCC1)N1CCCCC1)C(Cl)Cl	> 100	> 100	> 100 µM	> 100	> 100	> 100	> 100	> 100	> 100 µM	> 100	–	–	–	–	–	–	–	–	–	–
CC(=O)OC(C)(C)CCC(=O)[C@](C)(O)[C@H]1[C@H](O)C[C@@]2(C)[C@@H]3CC=C4C(C)=C(OC5OC(CO)C(O)C(O)C5O)C(=O)C[C@@H]4[C@]3(C)C(=O)C[C@]12C (stereo not given in full)	> 100	> 100	> 100 µM	> 100	> 100	> 100	> 100	> 100	> 100 µM	> 100	–	–	–	–	–	–	–	–	–	–
CN(C)c1ccc(/C=C/C(=O)O)cc1	> 100	> 100	> 100 µM	> 100	> 100	–	–	> 100	> 100 µM	–	–	–	–	–	–	–	–	–	–	–
COc1cccc(C2SC(C)C(=O)N2CCc2cccs2)c1 (stereo not given)	8.99	13.8	–	12.7	10.7	12.1	7.28	11.2	–	9.11	2.67 µM	3.34	3.39 µM	1.76 µM	2.62	2.16 µM	2.68 µM	2.69	–	–
Cc1ccc(S(=O)(=O)N/N=C2/CCC(C(C)(C)C)CC2Br)cc1 (stereo not given)	47	> 100	35.4 µM	> 100	–	> 100	51.8	> 100	33.4 µM	75.1	–	–	–	–	–	–	–	–	–	–
CC(=O)NC1(C(=O)N[C@@H](Cc2ccccc2)C(=O)NC2CCCCC2)Cc2ccc3ccccc3c2-c2c(ccc3ccccc23)C1	> 100	> 100	29.6 µM and 44 µM	> 100	> 100	–	> 100	> 100	22.9 µM and 45.9 µM	> 100	2.89 µM and 6.88 µM	–	2.53 µM and 5.95 µM	6.22 µM and 12.7 µM	–	3.74 µM and 9.85 µM	2.55 µM and 0.662 µM	–	3.32 µM and 7.79 µM	2.8 µM and 11.8 µM
COc1cc(CCN(C)C)cc(OC)c1OC	> 100	> 100	> 100 µM	> 100	> 100	> 100	> 100	> 100	–	> 100	–	–	–	–	–	–	–	–	–	–
COP(=O)(O)C(N)Cc1c[nH]c2ccccc12 (stereo not given)	–	> 100	> 100 µM	> 100	–	> 100	> 100	> 100	> 100 µM	–	–	–	–	–	–	–	–	–	–	–
Clc1ccc(C2CC(c3cccc(Nc4ccncc4)c3)=NN2c2cc(Cl)cc(Cl)c2)cc1 (stereo not given)	3.38	2.98	3.9 µM	–	3.29	3.34	3.16	3.23	2.77 µM	3.57	1.79 µM	1.61	–	1.77 µM	1.71	1.71 µM	1.76 µM	1.85	1.81 µM	1.34 µM
C[n+]1c2ccccc2c(/C=N\NS(=O)(=O)c2ccc(Cl)cc2)c2ccccc21	> 100	> 100	> 100 µM	> 100	> 100	> 100	–	> 100	> 100 µM	–	–	–	–	–	–	–	–	–	–	–
COc1cc(OC2OC(COC(=O)c3cc(O)c(O)c(O)c3)C(O)C(O)C2O)ccc1O (stereo not given)	> 100	> 100	> 100 µM	> 100	–	> 100	63.3	> 100	> 100 µM	> 100	–	–	–	–	–	–	–	–	–	–
COc1cccc(-c2nccc3c(OCc4ccccc4)c(OC)c(OC)cc23)c1	> 100	> 100	> 100 µM	> 100	> 100	> 100	–	> 100	> 100 µM	–	–	–	–	–	–	–	–	–	–	–
CCOC(=O)c1[nH]c2cccc3c2c1CC[C@H](NC(=O)C(F)(F)F)C3=O	> 100	–	> 100 µM	> 100	–	> 100	> 100	72.4	> 100 µM	> 100	–	–	–	–	–	–	–	–	–	–
O=[N+]([O-])c1ccc([N+]2=NC(c3ccccc3)=NN(c3ccccc3)C2)cc1	> 100	> 100	> 100 µM	> 100	> 100	> 100	–	> 100	> 100 µM	–	–	–	–	–	–	–	–	–	–	–
O=C(CSc1nnc(-c2ccc(N=Cc3ccc(Cl)cc3)cc2)o1)Nc1ccc([N+](=O)[O-])cc1	–	25.7	42 µM	> 100	42.4	38.1	–	79.4	37.2 µM	–	–	–	–	–	–	–	–	–	–	–
CCOc1ccc(/C=C2\NC(=S)N(/C=C3\C(=O)Oc4ccccc4C3=O)C2=O)cc1	69.2	56.3	92.4 µM	–	37.9	80.8	78.3	49.8	49.4 µM	54.9	–	–	–	–	–	–	–	–	–	–
COC1=C2C=[N+](C)C3C(=C2C=CC1OC)Cc1cc2c(cc13)OCO2 (stereo not given)	10.4	–	30.1 µM	32.4	21.6	30.6	33.3	29	26.6 µM	28.1	–	–	–	–	–	–	–	–	–	–
Nc1nc(=O)n(C2OC(CO)C(O)C2O)c2ncc(-c3ccc(-c4ccccc4)cc3)nc12 (stereo not given)	> 100	> 100	–	> 100	> 100	> 100	> 100	> 100	> 100 µM	> 100	–	–	–	–	–	–	–	–	–	–
